Data published in publication PMC7459541, “Frog Skin-Derived Peptides Against Corynebacterium jeikeium: Correlation between Antibacterial and Cytotoxic Activities” (Antibiotics, 2020).
Where no end group is shown, it is not given here.

Columns and labels:
[1] = system: murine RAW 264.7 macrophages; details: 64 µM; cited from earlier work
C. jeikeium ATCC BAA-949 = type: cell-based, Corynebacterium jeikeium; details: lowest peptide concentration visually inhibiting growth after 20 h at 37 °C; TSB + 0.1% Tween 80; 2-fold serial dilutions; inoculum 2x10^6 CFU/mL diluted 1:1
Description: The MIC of the different AMPs against C. jeikeium ATCC BAA-949 were determined following the previously described procedure with some modifications. The bacterium was grown in TSB^+ up to an optical density (O.D.) of 0.8 (λ = 590 nm) and diluted to reach a concentration of 2× 10^6 colony forming units (CFU) per mL. Aliquots (50 µL) of this dilution were added to 50 µL of TSB^+ supplemented with 2-fold serial dilution of peptides previously dispensed in the wells of a 96 well plate. Controls were bacteria not treated with the peptides. […] MBC was defined as the lowest peptide concentration able to cause a ≥3 log reduction in the number of cells of the initial inoculum after 20 h of incubation.

For “GIFSKLAGKKIKNLLISGLKG-NH2 [Esc(1-21), esculentin-1a(1-21)]”, the cell viability [1] is given as “about 50%”.
With “IIGPVLGLVGSALGGLLKKI-NH2 [Bombinin H2, bombinin H2]” the MIC (C. jeikeium ATCC BAA-949) was 8 µM.
